Measured values from ChEMBL document CHEMBL3046797, “Structure-activity relationships of trichothecene toxins in an Arabidopsis thaliana leaf assay” (J Agric Food Chem, 2007).

Legend:
Assay type in all cases: organism-based
Arabidopsis thaliana [1] = test: Phytotoxicity against Arabidopsis thaliana Col-4 leaves assessed as induction of chlorosis, shriveling or death of leaves […] by detached leaf assay; details: in vivo
[2] = Phytotoxicity against Arabidopsis thaliana Col-4 leaves assessed as induction of leaf death after 7 weeks post compound application by detached leaf assay; details: Col-4, arabidopsis thaliana, read-out: LD50
Arabidopsis thaliana [3] = test: Phytotoxicity against Arabidopsis thaliana Col-4 leaves assessed as induction of leaf death at 50 uM […] by detached leaf assay; details: in vivo
Arabidopsis thaliana [4] = test: Phytotoxicity against Arabidopsis thaliana Col-4 leaves assessed as induction of leaf death at 10 uM […] by detached leaf assay; details: in vivo
Arabidopsis thaliana [5] = test: Phytotoxicity against Arabidopsis thaliana Col-4 leaves assessed as induction of chlorosis at 50 uM […] by detached leaf assay; details: in vivo, 1176 h
Arabidopsis thaliana [6] = test: Phytotoxicity against Arabidopsis thaliana Col-4 leaves assessed as induction of chlorosis at 10 uM […] by detached leaf assay; details: in vivo
Arabidopsis thaliana [7] = test: Phytotoxicity against Arabidopsis thaliana Col-4 leaves assessed as induction of leaf death at 100 uM […] by detached leaf assay; details: in vivo
Arabidopsis thaliana [8] = test: Phytotoxicity against Arabidopsis thaliana Col-4 leaves assessed as induction of chlorosis at 100 uM […] by detached leaf assay; details: in vivo, 1176 h

SMILES	ED50 (Arabidopsis thaliana [1])	LC50 at 1176 h [2]	also measured
CC1=C[C@H]2O[C@@H]3[C@H](O)CC[C@](C)([C@@]2(C)CC1)[C@@]31CO1 [ISOTRICHODERMOL]	3.5 µM	–	–
CC(=O)O[C@@H]1C[C@]2(C)[C@@]3(CO)[C@H](O)C(=O)C(C)=C[C@H]3O[C@H]1[C@@]21CO1 [3-ACETYLDEOXYNIVALENOL]	3.4 µM	18.7 µM	–
CC1=CC(O)[C@@](C)([C@@]2(C)C[C@@H](O)[C@@H](O)C23CO3)CC1 (stereo partly drawn) [ISOTRICHOTRIOL]	> 100 µM	–	Activity (Arabidopsis thaliana [3]): 10%; Activity (Arabidopsis thaliana [4]): 10%; Activity (Arabidopsis thaliana [5]): 10%; Activity (Arabidopsis thaliana [6]): 10%; Activity (Arabidopsis thaliana [7]): 10%; Activity (Arabidopsis thaliana [8]): 10%
CC(=O)OC[C@]12CCC(C)=C[C@H]1O[C@@H]1[C@H](OC(C)=O)C[C@@H](OC(C)=O)[C@@]2(C)[C@@]12CO2 [3,4,15-TRIACETOXYSCIRPENOL]	6.7 µM	–	–
CC(=O)O[C@@H]1C[C@@H](O)[C@H]2O[C@@H]3C=C(C)C(=O)[C@@H](O)[C@]3(CO)[C@]1(C)[C@@]21CO1 [4-ACETYLNIVALENOL]	16.1 µM	–	–
CC(=O)OC[C@]12CCC(C)=C[C@H]1O[C@@H]1[C@H](O)CC[C@@]2(C)[C@@]12CO2 [3-DEACETYLCALONECTRIN]	7.6 µM	–	–
CC(=O)O[C@@H]1CC[C@]2(C)[C@@]3(C)CCC(C)=C[C@H]3O[C@H]1[C@]21CO1 [ISOTRICHODERMIN]	8.6 µM	16.1 µM	–
CC1=C[C@H]2O[C@@H]3[C@H](O)C[C@@H](O)[C@](C)([C@@]2(CO)CC1)[C@@]31CO1 [SCIRPENTRIOL]	53.6 µM	–	–
CC1=C[C@H]2O[C@@H]3[C@H](O)[C@@H](O)[C@](C)([C@@]2(CO)[C@H](O)C1=O)[C@]31CO1 [NIVALENOL]	> 100 µM	> 100 µM	Activity (Arabidopsis thaliana [8]): 10%
C=C1CCC[C@]1(C)[C@]1(C)CC=C(C)CC1 [TRICHODIENE]	> 100 µM	–	Activity (Arabidopsis thaliana [7]): 3%; Activity (Arabidopsis thaliana [8]): 10%
CC(=O)OC[C@]12[C@H](O)C(=O)C(C)=C[C@H]1O[C@@H]1[C@H](OC(C)=O)C[C@@H](O)[C@@]2(C)[C@@]12CO2 [3,15-DIACETYLNIVALENOL]	2.2 µM	4.3 µM	–
CC1=C[C@H]2O[C@@H]3[C@H](O)CC[C@](C)([C@@]2(CO)CC1)[C@@]31CO1 [3,15-DIDEACETYLCALONECTRIN]	90.1 µM	–	–
CC(=O)O[C@@H]1CC[C@]2(C)[C@@]3(CO)CCC(C)=C[C@H]3O[C@H]1[C@]21CO1 [15-DEACETYLCALONECTRIN]	> 100 µM	–	Activity (Arabidopsis thaliana [8]): 50%
CC(=O)OC[C@]12[C@H](O)C(=O)C(C)=C[C@H]1O[C@@H]1[C@H](OC(C)=O)CC[C@@]2(C)[C@@]12CO2 [3,15-DIACETYLDEOXYNIVALENOL]	10 µM	28.2 µM	–
CC(=O)OC[C@]12[C@H](O)C(=O)C(C)=C[C@H]1O[C@@H]1[C@H](O)C[C@@]2(C)[C@]12CO2 [15-ACETYLDEOXYNIVALENOL]	1.3 µM	4 µM	–
CC1=C[C@H]2O[C@@H]3[C@H](O)C[C@](C)([C@@]2(CO)[C@H](O)C1=O)[C@]31CO1 [DEOXYNIVALENOL]	3.8 µM	23 µM	–
